# Values of other authors as cited in US6476042B1, “Combination therapy for the treatment of migraine” (Pfizer Inc., priority 1999, dated 2002).
# Test system: carotid vascular resistance
# Details: anaesthetized dog
smiles,measurement,value
"CNS(=O)(=O)Cc1ccc2[nH]cc(CCN(C)C)c2c1 [Sumatriptan, sumatriptan]",effect on carotid vascular resistance,selective increase
